Experimental data taken from patent publication US20160214974A1 (SYNGENTA PARTICIPATIONS AG, priority 2013, published 2016).
Like-named read-outs stand apart in the source and are kept apart here.

Columns and labels:
[1] = tested on: Q-biotype strain of Bemisia tabaci (Neonicotinoid resistant); experiment: Control of neonicotinoid and pyrethroid resistant tobacco whitefly (Example B4 b); type: in vivo; conditions: 72 h, read-out: control of the Q-biotype (Neonicotinoid resistant) strain of Bemisia tabaci
[2] = tested on: Myzus persicae (Green Peach Aphid); experiment: Activity against Myzus persicae, sunflower leaf discs sprayed (Example B1); type: in vivo; conditions: foliar, 144 h, read-out: control of Myzus persicae (mortality)
Method: (§1) Activity Against Myzus persicae (Green Peach Aphid)
Sunflower leaf discs were placed on agar in a 24-well microtiter plate and sprayed with the test solutions at an application rate of 200 ppm. After drying, the leaf discs were infested with an aphid population of mixed ages. After an incubation period of 6 days, samples were checked for mortality.

[3] = tested on: Myzus persicae (Green Peach Aphid); experiment: Activity against Myzus persicae, pea seedlings with roots in test solution (Example B2); type: in vivo; conditions: 144 h, read-out: control of Myzus persicae (mortality)
Text: as §1
Pea seedlings, infested with an aphid population of mixed ages, were placed with the roots directly in the test solutions at an application rate of 24 ppm. 6 days after introduction, samples were checked for mortality.

[4] = tested on: Bemisia tabaci (Cotton White Fly); experiment: Activity against Bemisia tabaci, cotton leaf discs sprayed (Example B3); type: in vivo; conditions: foliar, 144 h, read-out: control of Bemisia tabaci (mortality)
Method: Activity Against Bemisia tabaci (Cotton White Fly)
Cotton leaf discs were placed on agar in a 24-well microtiter plate and sprayed with test solutions at an application rate of 200 ppm. After drying, the leaf discs were infested with 12 to 18 adults. After an incubation period of 6 days after infestation, samples were checked for mortality.

[5] = sunflower leaf discs sprayed at 200 ppm, mixed age aphids, 6 days
[6] = cotton leaf discs sprayed at 200 ppm, adults, 6 days

Compound | pest or weed control at 200 ppm ([1]; 200 ppm) | mortality at 200 ppm [2] | mortality at 24 ppm [3] | mortality at 200 ppm [4] | mortality at 200 ppm [2, 5] | further results
CC(C)(C)OC(=O)N1[C@@H]2CC[C@H]1C[C@](C(N)=S)(c1cncc(Br)c1)C2 |  |  |  |  |  | melting point: 228 to 230 °C
NC(=S)[C@@]1(c2cncc(Cl)c2)C[C@H]2C=C[C@@H](C1)N2CC(F)F [E.001, (1R,5S)-3-(5-chloro-3-pyridyl)-8-(2,2-difluoroethyl)-8-azabicyclo[3.2.1]oct-6-ene-3-carbothioamide] | ≥ 80% | ≥ 80% | ≥ 80% | ≥ 80% |  | 
NC(=S)[C@@]1(c2cncc(Cl)c2)C[C@H]2CC[C@@H](C1)N2CC(F)(F)F [E.002, (1S,5R)-3-(5-chloro-3-pyridyl)-8-(2,2,2-trifluoroethyl)-8-azabicyclo[3.2.1]octane-3-carbothioamide] |  | ≥ 80% |  | ≥ 80% |  | pest or weed control at 200 ppm [1]: ≥ 80%
C=C(Cl)CN1[C@@H]2CC[C@H]1C[C@](C(N)=S)(c1cncc(Br)c1)C2 [E.006, (1S,5R)-3-(5-bromo-3-pyridyl)-8-(2-chloroallyl)-8-azabicyclo[3.2.1]octane-3-carbothioamide] |  | ≥ 80% | ≥ 80% | ≥ 80% |  | pest or weed control at 200 ppm [1]: ≥ 80%
NC(=S)[C@@]1(c2cncc(Br)c2)C[C@H]2CC[C@@H](C1)N2CC(F)(F)F [E.007, (1S,5R)-3-(5-bromo-3-pyridyl)-8-(2,2,2-trifluoroethyl)-8-azabicyclo[3.2.1]octane-3-carbothioamide] |  | ≥ 80% |  | ≥ 80% |  | 
NC(=S)[C@@]1(c2cncc(Br)c2)C[C@H]2C=C[C@@H](C1)N2CCCC(F)(F)F [E.008, (1R,5S)-3-(5-bromo-3-pyridyl)-8-(4,4,4-trifluorobutyl)-8-azabicyclo[3.2.1]oct-6-ene-3-carbothioamide] | ≥ 80% | ≥ 80% | ≥ 80% | ≥ 80% |  | 
N#Cc1cncc([C@]2(C(N)=S)C[C@H]3CC[C@@H](C2)N3CC(F)(F)F)c1 [E.009, (1S,5R)-3-(5-cyano-3-pyridyl)-8-(2,2,2-trifluoroethyl)-8-azabicyclo[3.2.1]octane-3-carbothioamide] |  | ≥ 80% |  | ≥ 80% |  | pest or weed control at 200 ppm [1]: ≥ 80%
NC(=S)[C@@]1(c2cncc(Br)c2)C[C@H]2CC[C@@H](C1)N2 [E.010, (1R,5S)-3-(5-bromo-3-pyridyl)-8-azabicyclo[3.2.1]octane-3-carbothioamide] |  |  |  |  | ≥ 80% | mortality at 24 ppm ([3]; pea seedlings, roots in test solution at 24 ppm, 6 days): ≥ 80%; mortality at 200 ppm [4, 6]: ≥ 80%
C=C(Cl)CN1[C@@H]2C=C[C@H]1C[C@](C(N)=S)(c1cncc(C#N)c1)C2 [E.012, (1 S,5R)-8-(2-chloroallyl)-3-(5-cyano-3-pyridyl)-8-azabicyclo[3.2.1]oct-6-ene-3-carbothioamide] | ≥ 80% |  | ≥ 80% |  |  | 
C=C(Cl)CN1[C@@H]2C=C[C@H]1C[C@](C(N)=S)(c1cncc(Br)c1)C2 [E.013, (1R,5S)-3-(5-bromo-3-pyridyl)-8-(2-chloroallyl)-8-azabicyclo[3.2.1]oct-6-ene-3-carbothioamide] | ≥ 80% | ≥ 80% |  | ≥ 80% |  | 
NC(=S)[C@@]1(c2cncc(Br)c2)C[C@H]2C=C[C@@H](C1)N2 [E.015, (1S,5R)-3-(5-bromo-3-pyridyl)-8-azabicyclo[3.2.1]oct-6-ene-3-carbothioamide] |  |  |  |  | ≥ 80% | mortality at 200 ppm [4, 6]: ≥ 80%
NC(=S)[C@@]1(c2cncc(C3CC3)c2)C[C@H]2CC[C@@H](C1)N2CC(F)(F)F [E.023] |  |  |  |  | ≥ 80% | 
NC(=S)[C@@]1(c2cncc(I)c2)C[C@H]2C=C[C@@H](C1)N2 [E.034, (1S,5R)-3-(5-iodo-3-pyridyl)-8-azabicyclo[3.2.1]oct-6-ene-3-carbothioamide] |  |  |  |  | ≥ 80% | mortality at 200 ppm [4, 6]: ≥ 80%
NC(=S)[C@@]1(c2cncc(I)c2)C[C@H]2C=C[C@@H](C1)N2CC(F)F [E.039, (1 S,5R)-8-(2,2-difluoroethyl)-3-(5-iodo-3-pyridyl)-8-azabicyclo[3.2.1]oct-6-ene-3-carbothioamide] | ≥ 80% | ≥ 80% | ≥ 80% | ≥ 80% |  | 
NC(=S)[C@@]1(c2cncc(I)c2)C[C@H]2C=C[C@@H](C1)N2CC(F)(F)F [E.060, (1R,5S)-3-(5-iodo-3-pyridyl)-8-(2,2,2-trifluoroethyl)-8-azabicyclo[3.2.1]oct-6-ene-3-carbothioamide] |  |  |  |  | ≥ 80% | mortality at 200 ppm [4, 6]: ≥ 80%
C=CCN1[C@@H]2C=C[C@H]1C[C@](C(N)=S)(c1cncc(I)c1)C2 [E.063, (1R,5S)-8-allyl-3-(5-iodo-3-pyridyl)-8-azabicyclo[3.2.1]oct-6-ene-3-carbothioamide] | ≥ 80% | ≥ 80% | ≥ 80% | ≥ 80% |  | 
C[Si](C)(C)C#Cc1cncc([C@]2(C(N)=S)C[C@H]3C=C[C@@H](C2)N3CC(F)(F)F)c1 [E.068, (1R,5S)-8-(2,2,2-trifluoroethyl)-3-[5-(2-trimethylsilylethynyl)-3-pyridyl]-8-azabicyclo[3.2.1]oct-6-ene-3-carbothioamide] |  |  |  |  | ≥ 80% | 
C#Cc1cncc([C@]2(C(N)=S)C[C@H]3C=C[C@@H](C2)N3CC(F)(F)F)c1 [E.070, (1R,5S)-3-(5-ethynyl-3-pyridyl)-8-(2,2,2-trifluoroethyl)-8-azabicyclo[3.2.1]oct-6-ene-3-carbothioamide] |  |  |  |  | ≥ 80% | 
NC(=S)[C@@]1(c2cncc(F)c2)C[C@H]2C=C[C@@H](C1)N2CC(F)F [E.071, (1R,5S)-8-(2,2-difluoroethyl)-3-(5-fluoro-3-pyridyl)-8-azabicyclo[3.2.1]oct-6-ene-3-carbothioamide] | ≥ 80% | ≥ 80% | ≥ 80% | ≥ 80% |  | 
NC(=S)[C@@]1(c2cncc(I)c2)C[C@H]2CC[C@@H](C1)N2CC(F)F [E.072, (1 S,5R)-8-(2,2-difluoroethyl)-3-(5-iodo-3-pyridyl)-8-azabicyclo[3.2.1]octane-3-carbothioamide] |  | ≥ 80% | ≥ 80% | ≥ 80% |  | pest or weed control at 200 ppm [1]: ≥ 80%
O=[N+]([O-])NC1=NCCN1Cc1ccc(Cl)nc1 [Imidacloprid, reference compound] |  |  |  |  |  | pest or weed control at 200 ppm [1]: < 80%
N#C/N=C1\SCCN1Cc1ccc(Cl)nc1 [Thiacloprid, reference compound] |  |  |  |  |  | pest or weed control at 200 ppm [1]: < 80%
